Reference: BindingDB's records for doi:10.7270/Q2WS8RVZ (Burnham Center For Chemical Genomics, 2012)

target: Endothelial PAS domain-containing protein 1 (Homo sapiens, UniProt Q99814)
Sequence (Q99814 whole entry, the tested form may be a part): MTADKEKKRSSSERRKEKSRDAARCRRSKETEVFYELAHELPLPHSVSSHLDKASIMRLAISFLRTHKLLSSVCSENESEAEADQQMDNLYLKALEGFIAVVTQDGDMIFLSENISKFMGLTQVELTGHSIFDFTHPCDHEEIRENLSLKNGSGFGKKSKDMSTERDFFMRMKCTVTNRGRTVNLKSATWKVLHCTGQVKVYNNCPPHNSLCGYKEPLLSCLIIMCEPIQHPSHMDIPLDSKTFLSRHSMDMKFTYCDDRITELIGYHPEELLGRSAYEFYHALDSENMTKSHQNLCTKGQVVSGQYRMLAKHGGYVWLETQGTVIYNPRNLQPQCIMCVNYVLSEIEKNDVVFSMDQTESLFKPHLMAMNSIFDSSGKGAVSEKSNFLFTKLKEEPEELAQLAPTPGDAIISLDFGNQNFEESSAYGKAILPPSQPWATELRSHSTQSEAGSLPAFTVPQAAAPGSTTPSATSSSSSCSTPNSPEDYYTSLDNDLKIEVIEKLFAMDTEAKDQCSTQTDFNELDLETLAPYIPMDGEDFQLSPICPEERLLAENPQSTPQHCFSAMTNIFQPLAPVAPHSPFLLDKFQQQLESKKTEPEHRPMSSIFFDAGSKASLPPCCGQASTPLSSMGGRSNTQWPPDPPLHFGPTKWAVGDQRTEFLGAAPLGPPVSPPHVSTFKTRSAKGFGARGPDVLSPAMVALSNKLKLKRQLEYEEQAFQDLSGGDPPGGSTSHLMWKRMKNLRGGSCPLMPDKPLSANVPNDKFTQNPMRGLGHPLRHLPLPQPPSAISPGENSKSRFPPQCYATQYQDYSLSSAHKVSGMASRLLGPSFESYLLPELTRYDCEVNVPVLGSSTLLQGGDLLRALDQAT

SMILES | IC50
Cc1nn(-c2ccccc2)c(Cl)c1CN=Nc1ccc(Cl)c(C(=O)O)c1 [2-chloro-5-[2-[(5-chloro-3-methyl-1-phenylpyrazol-4-yl)methylidene]hydrazinyl]benzoic acid] | 64.5 µM
Cc1ccc(CN=Nc2cccc(C(=O)O)c2)s1 | 64.5 µM
O=C(O)c1ccc(N=NCc2ccc(C(F)(F)F)cc2)cc1 [sulfuric acid;4-[(N'E)-N'-[4-(trifluoromethyl)benzylidene]hydrazino]benzoic acid] | 9.84 µM
COc1cccc(C/N=N/c2ncccc2[N+](=O)[O-])c1OC [SMR000461041] | 8.21 µM
CC(C)(C)c1ccc(CN=Nc2ccc(C(=O)O)cc2)cc1 | 49.6 µM
O=C(O)c1cccc(N=NCc2cccs2)c1 [3-[(N'E)-N'-(2-thenylidene)hydrazino]benzoic acid] | 5.74 µM
CCOC(=O)Cc1csc(N=NCc2ccc(C(F)(F)F)cc2)n1 [ethyl 2-[2-[(2E)-2-[[4-(trifluoromethyl)phenyl]methylidene]hydrazinyl]-1,3-thiazol-4-yl]ethanoate] | 49.6 µM
Cc1nn(-c2ccccc2Cl)c(Cl)c1CN=Nc1cccc(C(=O)O)c1 [3-[2-[[5-chloro-1-(2-chlorophenyl)-3-methylpyrazol-4-yl]methylidene]hydrazinyl]benzoic acid] | 23.9 µM
c1ccc(CN=Nc2ccc3ccccc3n2)nc1 [SMR002048648] | 5.57 µM
O=C(O)c1ccc(N=NCc2ccc3ncccc3c2)cc1 | 64.5 µM

Stronger by IC50, values ahead:

IC50 | SMILES
4.22 µM | CCOc1cc(CN=Nc2cccc(C(=O)O)c2)ccc1OC(=O)c1ccccc1 [3-[(N''E)-N''-(4-benzoyloxy-3-ethoxy-benzylidene)hydrazino]benzoic acid]
5.03 µM | O=C(O)c1cc(N=NCc2ccc3c(c2)OCCO3)ccc1Cl [SMR000242957]
5.33 µM | CSc1ccc(CN=Nc2cccc(C(=O)O)c2)cc1 [3-[(N'E)-N'-[4-(methylthio)benzylidene]hydrazino]benzoic acid]
4.29 µM | COc1cc(CN=O)ccc1OCc1ccc(C(=O)O)cc1 [4-[[4-(hydroximinomethyl)-2-methoxy-phenoxy]methyl]benzoic acid]
4.08 µM | CC(C)c1ccc(CN=Nc2ccc(C(=O)O)cc2)cc1 [4-[2-[(4-propan-2-ylphenyl)methylidene]hydrazinyl]benzoic acid]
